From PubChem BioAssay AID330 (DTP/NCI, 2004) come the findings set out here.

The subject of this test is P388 leukemia ip, CD2F1 mice, survival T/C. Kind of test: NCI In Vivo Anticancer Drug Screen. Data for tumor model P388 Leukemia (intraperitoneal) in CD2F1 (CDF1) mice. The note with it: endpoint: median survival time, higher = longer survival. A digest of the protocol: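 Mice carrying the transplanted tumor received test compound or vehicle. Survival was recorded in each group, and the value is the treated-group measurement divided by that of the vehicle-treated control group.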

The mark [1] stands for this setting: dose: 12.5 mg/kg/injection, schedule: Q01DX009 (ip), vehicle: saline.
The mark [2] stands for this setting: dose: 25.0 mg/kg/injection, schedule: Q01DX009 (ip), vehicle: saline.
Where [3] appears, read: dose: 50.0 mg/kg/injection, schedule: Q01DX009 (ip), vehicle: saline.
Where [4] appears, read: dose: 100.0 mg/kg/injection, schedule: Q01DX009 (ip), vehicle: saline with Tween-80.
[5] abbreviates: dose: 200.0 mg/kg/injection, schedule: Q01DX009 (ip), vehicle: saline with Tween-80.
Where [6] appears, read: dose: 100.0 mg/kg/injection, schedule: Q04DX003 (ip), vehicle: saline.
The mark [7] stands for this setting: dose: 6.25 mg/kg/injection, schedule: Q01DX009 (ip), vehicle: saline.
The mark [8] stands for this setting: dose: 12.5 mg/kg/injection, schedule: Q01DX009 (ip), vehicle: distilled water + Tween-80.
Where [9] appears, read: dose: 25.0 mg/kg/injection, schedule: Q01DX009 (ip), vehicle: distilled water + Tween-80.
Setting [10] is: dose: 50.0 mg/kg/injection, schedule: Q01DX009 (ip), vehicle: distilled water + Tween-80.
Setting [11] is: dose: 100.0 mg/kg/injection, schedule: Q01DX009 (ip), vehicle: distilled water + Tween-80.
The mark [12] stands for this setting: dose: 50.0 mg/kg/injection, schedule: Q01DX009 (ip), vehicle: saline with Tween-80.
Setting [13] is: dose: 100.0 mg/kg/injection, schedule: Q01DX009 (ip), vehicle: saline.

“And” between values parts separate entries of the source, which are not always exact repeats. Identical values can stand only once. Inconclusive results and toxic doses are left out.

Regarding `C=C(CC(=O)O)C(=O)O` (tested in a mixture with another compound), the T/C under setting [1] was 100 % of control, the T/C under setting [2] is 100 % of control and the T/C under setting [3] is 100 % of control.

In the case of `O=C1CN2C=CC=CC2=NN1`, the T/C (dose: 60.0 mg/kg/injection, schedule: Q01DX005 (ip), vehicle: saline) was 100 % of control; the T/C (dose: 120.0 mg/kg/injection, schedule: Q01DX005 (ip), vehicle: saline) is 99 % of control; the T/C (dose: 240.0 mg/kg/injection, schedule: Q01DX005 (ip), vehicle: saline) is 101 % of control.

`CCOC1=NN(c2ccccc2)C(=O)C1`: the T/C was 100 % of control under setting [4]; 95 % of control (dose: 100.0 mg/kg/injection, schedule: Q04DX003 (ip), vehicle: saline with Tween-80); 100 % of control under setting [5]; 95 % of control (dose: 200.0 mg/kg/injection, schedule: Q04DX003 (ip), vehicle: saline with Tween-80); 100 % of control (dose: 400.0 mg/kg/injection, schedule: Q01DX009 (ip), vehicle: saline with Tween-80); 95 % of control (dose: 400.0 mg/kg/injection, schedule: Q04DX003 (ip), vehicle: saline with Tween-80).

In the case of `CN1/C(=C2\C=CC=C\C2=N/S(=O)(=O)c2ccc(Cl)cc2)Sc2ccccc21`, the T/C runs as follows: under setting [6], 103 % of control; (dose: 200.0 mg/kg/injection, schedule: Q04DX003 (ip), vehicle: saline) 104 % of control; (dose: 400.0 mg/kg/injection, schedule: Q04DX003 (ip), vehicle: saline) 99 % of control.

Turning to `CCCCCCNC(C)C`, the T/C is, setting by setting: (dose: 50.0 mg/kg/injection, schedule: Q01DX005 (ip), vehicle: saline) 104 % of control; (dose: 100.0 mg/kg/injection, schedule: Q01DX005 (ip), vehicle: saline) 101 % of control.

In the case of `CC(=O)OCC1OC(n2cc(CBr)nn2)C(OC(C)=O)C(OC(C)=O)C1OC(C)=O` (stereo not given), the T/C by setting is: (dose: 6.25 mg/kg/injection, schedule: Q01DX009 (ip), vehicle: distilled water + Tween-80) 102 % of control and 94 % of control; under setting [7], 93 % of control; under setting [8], 106 % of control and 115 % of control; under setting [9], 115 % of control; under setting [10], 118 % of control; under setting [3], 163 % of control. The T/C by setting is: (dose: 50.0 mg/kg/injection, schedule: Q04DX003 (ip), vehicle: saline) 101 % of control; under setting [11], 90 % of control; under setting [6], 99 % of control.

As to `COC(=O)c1ccc(N)c2c(N)ccc(C(=O)OC)c12`, the T/C by setting is: (dose: 60.0 mg/kg/injection, schedule: Q01DX005 (ip), vehicle: saline with Tween-80) 98 % of control; (dose: 120.0 mg/kg/injection, schedule: Q01DX005 (ip), vehicle: saline with Tween-80) 114 % of control; (dose: 240.0 mg/kg/injection, schedule: Q01DX005 (ip), vehicle: saline with Tween-80) 97 % of control.

In the case of `CC(=O)C1(CCC(C)(S(=O)(=O)c2ccccc2)S(=O)(=O)c2ccccc2)CCCCC1=O` (stereo not given), the T/C is 99 % of control (dose: 100.0 mg/kg/injection, schedule: Q01DX001 (ip), vehicle: Klucel (hydroxypropylcellulose) (HPC)); 100 % of control (dose: 200.0 mg/kg/injection, schedule: Q01DX001 (ip), vehicle: Klucel (hydroxypropylcellulose) (HPC)); 106 % of control (dose: 400.0 mg/kg/injection, schedule: Q01DX001 (ip), vehicle: Klucel (hydroxypropylcellulose) (HPC)).

Consider `CCN1c2ccccc2C(Cl)(c2ccc(N(C)C)cc2)c2ccccc21`, for which the T/C was 116 % of control under setting [7] and 120 % of control under setting [1].

On to `CC(Cl)CN(Cc1cc(O)c(CN(CC(C)Cl)CC(C)Cl)cc1O)CC(C)Cl` (stereo not given), for which the T/C (dose: 200.0 mg/kg/injection, schedule: Q04DX003 (ip), vehicle: Klucel (hydroxypropylcellulose) (HPC)) is 118 % of control.

`O=C1OC(=O)C2C3C=CC(C4C=CC43)C12` (stereo not given): the T/C was 106 % of control (dose: 25.0 mg/kg/injection, schedule: Q01DX009 (ip), vehicle: Klucel (hydroxypropylcellulose) (HPC)); 115 % of control (dose: 50.0 mg/kg/injection, schedule: Q01DX009 (ip), vehicle: Klucel (hydroxypropylcellulose) (HPC)); 115 % of control (dose: 100.0 mg/kg/injection, schedule: Q01DX009 (ip), vehicle: Klucel (hydroxypropylcellulose) (HPC)); 97 % of control (dose: 200.0 mg/kg/injection, schedule: Q01DX009 (ip), vehicle: Klucel (hydroxypropylcellulose) (HPC)).

Regarding `CCOC(=O)C1Cc2nc(-c3ccccc3)ncc2C1=O` (stereo not given), the T/C runs as follows: (dose: 12.5 mg/kg/injection, schedule: Q01DX009 (ip), vehicle: saline with Tween-80) 107 % of control; (dose: 25.0 mg/kg/injection, schedule: Q01DX009 (ip), vehicle: saline with Tween-80) 107 % of control; under setting [12], 101 % of control.

As to `O=S(=O)(O)SNCCN1CCOCC1`, the T/C is 105 % of control under setting [7], 110 % of control under setting [1] and 110 % of control under setting [2].

On to `O=[N+]([O-])c1cccc2c1ccc1nonc12`, for which the T/C by setting is: (dose: 50.0 mg/kg/injection, schedule: Q01DX005 (ip), vehicle: saline with Tween-80) 99 % of control; (dose: 100.0 mg/kg/injection, schedule: Q01DX005 (ip), vehicle: saline with Tween-80) 94 % of control; (dose: 200.0 mg/kg/injection, schedule: Q01DX005 (ip), vehicle: saline with Tween-80) 97 % of control.

As to `CNC(=O)NC(c1cc(OC)c(O)c(OC)c1)c1cc2c(cc1O)OCO2` (stereo not given), the T/C runs as follows: (dose: 60.0 mg/kg/injection, schedule: Q01DX005 (ip), vehicle: Klucel (hydroxypropylcellulose) (HPC)) 95 % of control; (dose: 120.0 mg/kg/injection, schedule: Q01DX005 (ip), vehicle: Klucel (hydroxypropylcellulose) (HPC)) 94 % of control; (dose: 240.0 mg/kg/injection, schedule: Q01DX005 (ip), vehicle: Klucel (hydroxypropylcellulose) (HPC)) 87 % of control.

Consider `CN(C)CCC(=O)c1cccc([N+](=O)[O-])c1`, for which the T/C is, setting by setting: under setting [1], 104 % of control; under setting [2], 101 % of control; under setting [3], 104 % of control and 109 % of control; under setting [13], 98 % of control.

Regarding `FC(F)(F)C1(C(F)(F)F)N=CC=CN1`, the T/C by setting is: (dose: 50.0 mg/kg/injection, schedule: Q01DX009 (ip), vehicle: distilled water + alcohol) 101 % of control; (dose: 100.0 mg/kg/injection, schedule: Q01DX009 (ip), vehicle: distilled water + alcohol) 95 % of control.

On to `Cn1nnc2c1C(=O)c1ccccc1C2=O`, for which the T/C under setting [12] was 106 % of control, the T/C under setting [4] is 111 % of control and the T/C under setting [5] was 110 % of control.

`C#CC(C)(O)C(C)(C)C` (stereo not given): the T/C is 88 % of control under setting [2], 98 % of control under setting [3] and 98 % of control under setting [13].

For `Nc1ccc([N+](=O)[O-])cc1`, the T/C reads like this: under setting [8], 102 % of control; under setting [9], 100 % of control; under setting [10], 103 % of control; under setting [11], 103 % of control; (dose: 200.0 mg/kg/injection, schedule: Q01DX009 (ip), vehicle: distilled water + Tween-80) 102 % of control.

On to `O=C/C=C/c1cccc([N+](=O)[O-])c1`, for which the T/C by setting is: under setting [12], 113 % of control; under setting [4], 113 % of control; under setting [5], 104 % of control.

Regarding `CC(=O)NCCc1nc(-c2nc(C(=O)NCCC[S+](C)C)cs2)cs1`, the T/C (dose: 1.56 mg/kg/injection, schedule: Q01DX005 (ip), vehicle: saline with Tween-80) is 107 % of control; the T/C (dose: 3.13 mg/kg/injection, schedule: Q01DX005 (ip), vehicle: saline with Tween-80) is 107 % of control; the T/C (dose: 6.25 mg/kg/injection, schedule: Q01DX005 (ip), vehicle: saline with Tween-80) is 100 % of control and 105 % of control; the T/C (dose: 25.0 mg/kg/injection, schedule: Q01DX005 (ip), vehicle: saline with Tween-80) was 96 % of control.

Consider `C=CC[n+]1ccc(/C=N\NC(N)=S)c2ccccc21`, for which the T/C runs as follows: under setting [12], 116 % of control; under setting [4], 110 % of control.

For the compound `CN(Cc1cnc2nc(N)nc(N)c2n1)c1ccc(C(=O)NC(CCC(=O)NC(CCC(=O)O)C(=O)O)C(=O)O)cc1` (stereo not given), the T/C is, setting by setting: (dose: 1.56 mg/kg/injection, schedule: Q01DX009 (ip), vehicle: Klucel (hydroxypropylcellulose) (HPC)) 184 % of control and 218 % of control; (dose: 3.12 mg/kg/injection, schedule: Q01DX009 (ip), vehicle: Klucel (hydroxypropylcellulose) (HPC)) 214 % of control and 94 % of control; (dose: 6.25 mg/kg/injection, schedule: Q01DX009 (ip), vehicle: Klucel (hydroxypropylcellulose) (HPC)) 88 % of control.
